From patent US11254663B2 (BRISTOL-MYERS SQUIBB COMPANY, priority 2019, dated 2022)

Molecular target: FXR (Homo sapiens (Human), UniProt Q96RI1)
Assay: transient human FXR/Gal4-luciferase reporter assay
Format: cell-based
Conditions: not given
Outline: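 HEK293 cells stably carrying a 5×Gal4 response element–firefly luciferase reporter were transiently transfected overnight with a Gal4 DBD–human FXR LBD fusion plasmid. Compound was added in DMSO and cells were incubated overnight at 37 °C, 5% CO2. Activity was read as Steady-Glo luminescence.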

Sequence of FXR (Q96RI1 262-486): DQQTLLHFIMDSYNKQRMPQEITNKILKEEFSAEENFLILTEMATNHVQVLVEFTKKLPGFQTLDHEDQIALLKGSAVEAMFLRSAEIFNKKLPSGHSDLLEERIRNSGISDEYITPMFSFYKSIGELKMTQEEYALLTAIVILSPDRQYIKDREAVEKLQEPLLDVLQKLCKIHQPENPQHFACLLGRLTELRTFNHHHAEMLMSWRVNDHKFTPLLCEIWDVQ

Structure (SMILES) | EC50 [nM]
CC(C)(O)c1ccc(-c2cccc(N(CC34CCC(c5noc(C(C)(C)F)n5)(CC3)CC4)C(=O)NCC3(S(C)(=O)=O)CC3)c2)cc1 [Example 642] | 294
CC(C)(O)c1ccc(-c2cccc(N(CC34CCC(c5noc(C(C)(C)F)n5)(CC3)CC4)C(=O)N3CC(O)(C(F)(F)F)C3)c2)cc1 [Example 643, N-((4-(5-(2-fluoropropan-2-yl)-1,2,4-oxadiazol-3-yl)bicyclo[2.2.2]octan-1-yl)methyl)-3-hydroxy-N-(4′-(2-hydroxypropan-2-yl)-[1,1′-biphenyl]-3-yl)-3-(trifluoromethyl)azetidine-1-carboxamide] | 235
CC(C)(O)c1ccc(-c2cccc(N(CC34CCC(c5noc(C(C)(C)F)n5)(CC3)CC4)C(=O)NC3CCS(=O)(=O)CC3)c2)cc1 [Example 644, 3-(1,1-dioxidotetrahydro-2H-thiopyran-4-yl)-1-((4-(5-(2-fluoropropan-2-yl)-1,2,4-oxadiazol-3-yl)bicyclo[2.2.2]octan-1-yl)methyl)-1-(4′-(2-hydroxypropan-2-yl)-[1,1′-biphenyl]-3-yl)urea] | 743
CC(C)(O)c1ccc(-c2cccc(N(CC34CCC(c5noc(C(C)(C)F)n5)(CC3)CC4)C(=O)N3CCN(CC(F)(F)F)CC3)c2)cc1 [Example 645] | 229
CC(C)(O)c1ccc(-c2cccc(N(CC34CCC(c5noc(C(C)(C)F)n5)(CC3)CC4)C(=O)NCC(F)(F)CO)c2)cc1 [Example 646, 3-(2,2-difluoro-3-hydroxypropyl)-1-((4-(5-(2-fluoropropan-2-yl)-1,2,4-oxadiazol-3-yl)bicyclo[2.2.2]octan-1-yl)methyl)-1-(4′-(2-hydroxypropan-2-yl)-[1,1′-biphenyl]-3-yl)urea] | 270
CC(C)(O)c1ccc(-c2cccc(N(CC34CCC(c5noc(C(C)(C)F)n5)(CC3)CC4)C(=O)NCC3(CO)CCOCC3)c2)cc1 [Example 647, 1-((4-(5-(2-fluoropropan-2-yl)-1,2,4-oxadiazol-3-yl)bicyclo[2.2.2]octan-1-yl)methyl)-3-((4-(hydroxymethyl)tetrahydro-2H-pyran-4-yl)methyl)-1-(4′-(2-hydroxypropan-2-yl)-[1,1′-biphenyl]-3-yl)urea] | 581
CC(C)(O)c1ccc(-c2cccc(N(CC34CCC(c5noc(C(C)(C)F)n5)(CC3)CC4)C(=O)NCC3(O)CC3)c2)cc1 [Example 648, 1-((4-(5-(2-fluoropropan-2-yl)-1,2,4-oxadiazol-3-yl)bicyclo[2.2.2]octan-1-yl)methyl)-3-((1-hydroxycyclopropyl)methyl)-1-(4′-(2-hydroxypropan-2-yl)-[1,1′-biphenyl]-3-yl)urea] | 509
CC(C)(O)c1ccc(-c2cccc(N(CC34CCC(c5noc(C(C)(C)F)n5)(CC3)CC4)C(=O)NCCN3CCOCC3)c2)cc1 [Example 649, 1-((4-(5-(2-fluoropropan-2-yl)-1,2,4-oxadiazol-3-yl)bicyclo[2.2.2]octan-1-yl)methyl)-1-(4′-(2-hydroxypropan-2-yl)-[1,1′-biphenyl]-3-yl)-3-(2-morpholinoethyl)urea] | 600

Same assay, conditions: Gal4-hFXR fusion construct, HEK293 reporter cells; response relative to 8 μM GW-4064

Structure (SMILES) | EC50 [nM]
CC(C)(F)c1nc(C23CCC(CN(C(=O)OC4CC(F)(F)C4)c4cc(-c5ccc(OC(F)F)cc5)c(F)cn4)(CC2)CC3)no1 [Example 630, 3,3-difluorocyclobutyl(4-(4-(difluoromethoxy)phenyl)-5-fluoropyridin-2-yl)((4-(5-(2-fluoropropan-2-yl)-1,2,4-oxadiazol-3-yl)bicyclo[2.2.2]octan-1-yl)methyl)carbamate] | 160
CC(C)Oc1ccc(-c2cccc(N(CC34CCC(c5noc(C(C)(C)F)n5)(CC3)CC4)C(=O)OC3(C(F)(F)F)COC3)c2)cc1 [Example 632, 3-(trifluoromethyl)oxetan-3-yl ((4-(5-(2-fluoropropan-2-yl)-1,2,4-oxadiazol-3-yl)bicyclo[2.2.2]octan-1-yl)methyl)(4′-isopropoxy-[1,1′-biphenyl]-3-yl)carbamate] | 222

Now from value to compound:

EC50 [nM] | Structure (SMILES)
18 | CC(C)(C#N)Oc1ccc(-c2ccnc(N(CC34CCC(c5noc(C6(F)CC6)n5)(CC3)CC4)C(=O)OC(C)(C)C(F)(F)F)c2)cc1 [Example 625, 1,1,1-trifluoro-2-methylpropan-2-yl(4-(4-((2-cyanopropan-2-yl)oxy)phenyl)pyridin-2-yl) ((4-(5-(1-fluorocyclopropyl)-1,2,4-oxadiazol-3-yl)bicyclo[2.2.2]octan-1-yl)methyl) carbamate]
72 | CC(C)Oc1ccc(-c2ccnc(N(CC34CCC(c5noc(C(C)(F)F)n5)(CC3)CC4)C(=O)N3CCOCC3)c2)cc1 [Example 626, N-((4-(5-(1,1-difluoroethyl)-1,2,4-oxadiazol-3-yl)bicyclo[2.2.2]octan-1-yl)methyl)-N-(4-(4-isopropoxyphenyl)pyridin-2-yl)morpholine-4-carboxamide]
99 | CC(C)(F)c1nc(C23CCC(CN(C(=O)O[C@H]4C[C@](O)(C(F)(F)F)C4)c4cc(-c5ccc(OC(F)F)cc5)c(F)cn4)(CC2)CC3)no1 [Example 629, (cis)-3-hydroxy-3-(trifluoromethyl)cyclobutyl (4-(4-(difluoromethoxy)phenyl)-5-fluoropyridin-2-yl)((4-(5-(2-fluoropropan-2-yl)-1,2,4-oxadiazol-3-yl)bicyclo[2.2.2]octan-1-yl)methyl)carbamate]
117 | CC(C)(F)c1nc(C23CCC(CN(C(=O)OC4CCC(F)(F)CC4)c4cc(-c5ccc(OC(F)F)cc5)c(F)cn4)(CC2)CC3)no1 [Example 631, 4,4-difluorocyclohexyl (4-(4-(difluoromethoxy)phenyl)-5-fluoropyridin-2-yl) ((4-(5-(2-fluoropropan-2-yl)-1,2,4-oxadiazol-3-yl)bicyclo[2.2.2]octan-1-yl)methyl) carbamate]
32 | CC(C)(O)Cn1cc(-c2cc(N(CC34CCC(c5noc(C(C)(F)F)n5)(CC3)CC4)C(=O)NC34CC(C3)C4)ccc2F)cn1 [Example 633, 3-(bicyclo[1.1.1]pentan-1-yl)-1-((4-(5-(1,1-difluoroethyl)-1,2,4-oxadiazol-3-yl)bicyclo[2.2.2]octan-1-yl)methyl)-1-(4-fluoro-3-(1-(2-hydroxy-2-methylpropyl)-1H-pyrazol-4-yl)phenyl)urea]
31 | CC(C)(O)c1ccc(-c2ccnc(N(CC34CCC(c5noc(C(C)(C)F)n5)(CC3)CC4)C(=O)OC(C)(C)C(F)(F)F)c2)cc1 [Example 634, 1,1,1-trifluoro-2-methylpropan-2-yl((4-(5-(2-fluoropropan-2-yl)-1,2,4-oxadiazol-3-yl)bicyclo[2.2.2]octan-1-yl)methyl)(4-(4-(2-hydroxypropan-2-yl)phenyl)pyridin-2-yl) carbamate]
1280 | CC(C)(O)c1ccc(-c2nccc(N(CC34CCC(c5noc(C(C)(C)F)n5)(CC3)CC4)C(=O)OC(C)(C)C(F)(F)F)n2)cc1 [Example 635, 1,1,1-trifluoro-2-methylpropan-2-yl ((4-(5-(2-fluoropropan-2-yl)-1,2,4-oxadiazol-3-yl)bicyclo[2.2.2]octan-1-yl)methyl)(2-(4-(2-hydroxypropan-2-yl)phenyl)pyrimidin-4-yl) carbamate]
68 | CC(C)Oc1ccc(-c2ccnc(N(CC34CCC(c5noc(C(C)(C)F)n5)(CC3)CC4)C(=O)OC(C)(C)C(F)(F)F)n2)cc1 [Example 636, 1,1,1-trifluoro-2-methylpropan-2-yl ((4-(5-(2-fluoropropan-2-yl)-1,2,4-oxadiazol-3-yl)bicyclo[2.2.2]octan-1-yl)methyl)(4-(4-isopropoxyphenyl)pyrimidin-2-yl)carbamate]
384 | O=C(NC12CCC(CN(C(=O)C3CC(O)(C(F)(F)F)C3)c3cccc(-c4ccc(OC(F)F)cc4)c3)(CC1)CC2)c1ccc(F)cc1 (stereo not drawn) [Example 637, N-(4-(((cis)-N-(4′-(difluoromethoxy)-[1,1′-biphenyl]-3-yl)-3-hydroxy-3-(trifluoromethyl)cyclobutane-1-carboxamido)methyl)bicyclo[2.2.2]octan-1-yl)-4-fluorobenzamide]
2000 | O=C(C1CC(O)(C(F)(F)F)C1)N(CC12CCC(C(=O)NS(=O)(=O)C3CC3)(CC1)CC2)c1cccc(-c2ccc(OC(F)F)cc2)c1 (stereo not drawn) [Example 638, N-(cyclopropylsulfonyl)-4-(((cis)-N-(4′-(difluoromethoxy)-[1,1′-biphenyl]-3-yl)-3-hydroxy-3-(trifluoromethyl)cyclobutane-1-carboxamido)methyl)bicyclo[2.2.2]octane-1-carboxamide]
221 | O=C(C1CC(O)(C(F)(F)F)C1)N(CC12CCC(c3noc(-c4ccc(F)cc4)n3)(CC1)CC2)c1cccc(-c2ccc(OC(F)F)cc2)c1 (stereo not drawn) [Example 639, (cis)-N-(4′-(difluoromethoxy)-[1,1′-biphenyl]-3-yl)-N-((4-(5-(4-fluorophenyl)-1,2,4-oxadiazol-3-yl)bicyclo[2.2.2]octan-1-yl)methyl)-3-hydroxy-3-(trifluoromethyl)cyclobutane-1-carboxamide]
27 | CC(C)Oc1ccc(-c2ccnc(N(CC34CCC(c5ccc(C(C)(F)F)cn5)(CC3)CC4)C(=O)[C@H]3C[C@@](C)(OC(F)F)C3)c2)cc1 [Example 640, (cis)-N-((4-(5-(1,1-difluoroethyl)pyridin-2-yl)bicyclo[2.2.2]octan-1-yl)methyl)-3-(difluoromethoxy)-N-(4-(4-isopropoxyphenyl)pyridin-2-yl)-3-methylcyclobutane-1-carboxamide]
1300 | CC(C)(O)c1ccc(-c2cccc(N(CC34CCC(c5noc(C(C)(C)F)n5)(CC3)CC4)C(=O)N3CC4(C3)CS(=O)(=O)C4)c2)cc1 [Example 641, N-((4-(5-(2-fluoropropan-2-yl)-1,2,4-oxadiazol-3-yl)bicyclo[2.2.2]octan-1-yl)methyl)-N-(4′-(2-hydroxypropan-2-yl)-[1,1′-biphenyl]-3-yl)-2-thia-6-azaspiro[3.3]heptane-6-carboxamide 2,2-dioxide]
